Assay results published in patent US11149037B2, “Pyrazole MAGL inhibitors” (H. Lundbeck A/S, priority 2017, dated 2021).

Tests used:
Format in all cases: biochemical
FAAH [1] = target: FAAH (Mus musculus (Mouse), UniProt O08914); experiment: In vitro competitive activity-based protein profiling, mouse proteomes (brain membrane fraction or cell lysates); conditions: mouse proteome, read-out: FAAH % inh. 1 μM (mouse)
Procedure: (§1) In Vitro Competitive Activity-Based Protein Profiling.
(§2) Proteomes (mouse brain membrane fraction or cell lysates for mouse assays; human prefrontal cortex or PC3 cell membrane fractions for human assays) (50 μL, 1.0 or 2.0 mg/mL total protein concentration) were preincubated with varying concentrations of inhibitors at 37° C. After 30 min, FP-Rh or JW912 or HT-01 (1.0 μL, 50 μM in DMSO) was added and the mixture was incubated for another 30 min at 37° C. Reactions were quenched with SDS loading buffer (15 μL-4×) and run on SDS-PAGE. Following gel imaging, serine hydrolase activity was determined by measuring fluorescent intensity of gel bands corresponding to MAGL and FAAH using ImageJ 1.43u software.

MAGL [2] = target: MAGL (Mus musculus (Mouse), UniProt O35678); experiment: as above; conditions: mouse proteome, read-out: MAGL % inh. 1 μM (mouse)
Procedure: as §1, §2

FAAH [3] = target: FAAH (Homo sapiens (Human), UniProt O00519); experiment: In vitro competitive activity-based protein profiling, human proteomes (prefrontal cortex or PC3 cell membrane fractions); conditions: human proteome; for inhibition at 1 µM: read-out: FAAH % inh. 1 μM (human)
Procedure: as §1, §2

MAGL [4] = target: MAGL (Homo sapiens (Human), UniProt Q99685); experiment: as above; conditions: human proteome; for inhibition at 10 µM: read-out: MAGL % inh. (human) @ 10 μM; for inhibition at 1 µM: read-out: MAGL % inh. 1 μM (human)
Procedure: as §1, §2

FAAH (Homo sapiens (Human), UniProt O00519), sequence (O00519 whole entry): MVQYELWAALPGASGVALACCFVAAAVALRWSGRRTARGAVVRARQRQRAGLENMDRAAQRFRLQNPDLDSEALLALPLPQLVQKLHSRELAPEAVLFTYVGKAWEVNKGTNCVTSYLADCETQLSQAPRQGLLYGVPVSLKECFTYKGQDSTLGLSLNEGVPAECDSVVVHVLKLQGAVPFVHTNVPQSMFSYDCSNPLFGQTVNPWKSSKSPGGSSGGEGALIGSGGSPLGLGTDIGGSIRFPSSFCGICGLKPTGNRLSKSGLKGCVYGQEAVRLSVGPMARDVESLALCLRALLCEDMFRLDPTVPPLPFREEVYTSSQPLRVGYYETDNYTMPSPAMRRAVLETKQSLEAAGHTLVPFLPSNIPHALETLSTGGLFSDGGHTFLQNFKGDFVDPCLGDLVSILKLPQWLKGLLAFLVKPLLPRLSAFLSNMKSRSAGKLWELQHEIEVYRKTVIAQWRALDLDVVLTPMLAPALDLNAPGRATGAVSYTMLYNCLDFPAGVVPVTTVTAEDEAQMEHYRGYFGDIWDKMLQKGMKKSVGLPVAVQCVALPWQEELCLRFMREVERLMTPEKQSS
FAAH (Mus musculus (Mouse), UniProt O08914), sequence (O08914 whole entry): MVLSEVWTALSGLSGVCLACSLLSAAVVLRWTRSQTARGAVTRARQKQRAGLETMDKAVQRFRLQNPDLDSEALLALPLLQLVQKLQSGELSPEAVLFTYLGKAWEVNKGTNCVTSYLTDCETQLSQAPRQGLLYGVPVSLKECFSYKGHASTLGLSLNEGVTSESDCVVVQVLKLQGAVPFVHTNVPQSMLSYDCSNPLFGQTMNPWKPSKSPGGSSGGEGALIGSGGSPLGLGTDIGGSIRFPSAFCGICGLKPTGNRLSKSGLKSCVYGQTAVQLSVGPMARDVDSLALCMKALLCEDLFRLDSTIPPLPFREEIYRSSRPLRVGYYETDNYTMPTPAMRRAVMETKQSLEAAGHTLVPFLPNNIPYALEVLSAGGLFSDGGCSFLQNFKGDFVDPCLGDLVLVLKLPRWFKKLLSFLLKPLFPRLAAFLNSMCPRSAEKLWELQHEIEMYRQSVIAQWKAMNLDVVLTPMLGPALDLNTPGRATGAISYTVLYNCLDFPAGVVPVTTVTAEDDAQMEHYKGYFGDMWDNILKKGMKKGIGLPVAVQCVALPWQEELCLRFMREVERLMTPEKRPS
MAGL (Mus musculus (Mouse), UniProt O35678), sequence (O35678 whole entry): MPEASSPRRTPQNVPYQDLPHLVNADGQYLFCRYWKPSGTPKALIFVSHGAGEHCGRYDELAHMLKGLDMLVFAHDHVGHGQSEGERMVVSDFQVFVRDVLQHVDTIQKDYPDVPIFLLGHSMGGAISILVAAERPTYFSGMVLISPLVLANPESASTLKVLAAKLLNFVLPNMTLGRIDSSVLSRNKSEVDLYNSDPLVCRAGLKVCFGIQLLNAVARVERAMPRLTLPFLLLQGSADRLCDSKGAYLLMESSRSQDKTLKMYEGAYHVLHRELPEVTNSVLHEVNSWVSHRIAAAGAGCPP
MAGL (Homo sapiens (Human), UniProt Q99685), sequence (Q99685 whole entry): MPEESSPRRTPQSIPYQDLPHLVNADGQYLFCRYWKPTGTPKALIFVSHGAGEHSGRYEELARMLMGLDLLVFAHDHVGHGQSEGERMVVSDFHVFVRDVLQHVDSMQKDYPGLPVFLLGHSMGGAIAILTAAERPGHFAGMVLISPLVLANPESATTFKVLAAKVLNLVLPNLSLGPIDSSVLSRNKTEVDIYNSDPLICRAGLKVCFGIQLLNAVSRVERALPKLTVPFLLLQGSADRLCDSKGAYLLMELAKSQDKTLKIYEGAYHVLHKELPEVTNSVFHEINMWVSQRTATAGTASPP

inhibition at 1 µM (FAAH [1]) [%] | inhibition at 1 µM (MAGL [2]) [%] | inhibition at 1 µM (FAAH [3]) [%] | inhibition at 10 µM (MAGL [4]) [%] | inhibition at 1 µM (MAGL [4]) [%] | IC50 (FAAH [3]) [µM] | IC50 (MAGL [4]) [µM] | SMILES
0 to 25 | 0 to 25 | 0 to 25 | 50 to 75 | – | – | – | CC1(N(CC(=O)O)Cc2ccc(C(F)(F)F)cc2N2CCCC2)CCN(C(=O)n2ccc(NS(C)(=O)=O)n2)CC1 [Example 29, N-(4-methyl-1-(3-(methylsulfonamido)-1H-pyrazole-1-carbonyl)piperidin-4-yl)-N-(2-(pyrrolidin-1-yl)-4-(trifluoromethyl)benzyl)glycine]
> 75 | > 75 | > 75 | – | > 75 | – | – | CC(=O)Nc1ccn(C(=O)N2CCN(Cc3cc(Cl)cc(Oc4ccc(Cl)cc4)c3)CC2)n1 [Example 17, N-(1-(4-(3-chloro-5-(4-chlorophenoxy)benzyl)piperazine-1-carbonyl)-1H-pyrazol-3-yl)acetamide]
50 to 75 | 25 to 50 | 0 to 25 | – | > 75 | – | – | CS(=O)(=O)Nc1ccn(C(=O)N2CCC3(CCN(Cc4ccc(N5CCCC5)c(C(F)(F)F)c4)C3)CC2)n1 [Example 72, N-(1-(2-(4-(Pyrrolidin-1-yl)-3-(trifluoromethyl)benzyl)-2,8-diazaspiro[4.5]decane-8-carbonyl)-1H-pyrazol-3-yl)methanesulfonamide]
> 75 | > 75 | > 75 | – | > 75 | 0.1 to 1 | < 0.1 | CC(C)(O)COc1cccc(CN2CCN(C(=O)n3ccc(NS(C)(=O)=O)n3)CC2)c1Cl [Example 34, N-(1-(4-(2-Chloro-3-(2-hydroxy-2-methylpropoxy)benzyl)piperazine-1-carbonyl)-1H-pyrazol-3-yl)methanesulfonamide]
0 to 25 | > 75 | 0 to 25 | – | > 75 | – | – | CS(=O)(=O)Nc1ccn(C(=O)N2CCN(Cc3ccc(Cl)c(N4CCC(F)(F)CC4)c3)CC2)n1 [Example 147, N-(1-(4-(4-Chloro-3-(4,4-difluoropiperidin-1-yl)benzyl)piperazine-1-carbonyl)-1H-pyrazol-3-yl)methanesulfonamide]
> 75 | > 75 | 0 to 25 | – | > 75 | – | – | CC(=O)Nc1ccn(C(=O)N2CCC3(CCCN3C(=O)c3cc4ccc(C(F)(F)F)cc4s3)CC2)n1 [Example 155, N-(1-(1-(6-(Trifluoromethyl)benzo[b]thiophene-2-carbonyl)-1,8-diazaspiro[4.5]decane-8-carbonyl)-1H-pyrazol-3-yl)acetamide]
> 75 | > 75 | – | – | – | 0.1 to 1 | < 0.1 | CC(=O)Nc1ccn(C(=O)N2CC3CN(Cc4cccc(Oc5ccccc5)c4)CC3C2)n1 (stereo not drawn) [Example 173, N-(1-(5-(3-Phenoxybenzyl)octahydropyrrolo[3,4-c]pyrrole-2-carbonyl)-1H-pyrazol-3-yl)acetamide]
0 to 25 | 25 to 50 | 0 to 25 | – | 25 to 50 | – | – | CS(=O)(=O)Nc1ccn(C(=O)N2CCN(Cc3ncccc3N3CCCC3)CC2)n1 [Example 86, N-(1-(4-((3-(Pyrrolidin-1-yl)pyridin-2-yl)methyl)piperazine-1-carbonyl)-1H-pyrazol-3-yl)methanesulfonamide]
0 to 25 | 50 to 75 | 0 to 25 | – | 50 to 75 | – | – | CS(=O)(=O)Nc1ccn(C(=O)N2CCC(Oc3ccc(C(F)(F)F)cc3N3CCCC3=O)CC2)n1 [Example 100, N-(1-(4-(2-(2-Oxopyrrolidin-1-yl)-4-(trifluoromethyl)phenoxy)piperidine-1-carbonyl)-1H-pyrazol-3-yl)methanesulfonamide]
> 75 | > 75 | > 75 | – | > 75 | – | – | CS(=O)(=O)Nc1ccn(C(=O)N2C[C@H]3C[C@H](OCc4cccc(C(F)(F)F)c4)C[C@H]3C2)n1 [Example 28, N-(1-((3aR,5s,6aS)-5-((3-(trifluoromethyl)benzyl)oxy)octahydrocyclopenta[c]pyrrole-2-carbonyl)-1H-pyrazol-3-yl)methanesulfonamide]
> 75 | > 75 | > 75 | – | > 75 | 0.1 to 1 | < 0.1 | CC(=O)Nc1ccn(C(=O)N2CCC3(CCN(Cc4ccc(N5CCCC5)cc4C(F)(F)F)C3)CC2)n1 [Example 23, N-(1-(2-(4-(pyrrolidin-1-yl)-2-(trifluoromethyl)benzyl)-2,8-diazaspiro[4.5]decane-8-carbonyl)-1H-pyrazol-3-yl)acetamide]
> 75 | 25 to 50 | 25 to 50 | – | > 75 | – | – | CS(=O)(=O)Nc1ccn(C(=O)N2CC3CN(Cc4cccc(OC(F)(F)F)c4)CC3C2)n1 (stereo not drawn) [Example 115, N-(1-(5-(3-(Trifluoromethoxy)benzyl)octahydropyrrolo[3,4-c]pyrrole-2-carbonyl)-1H-pyrazol-3-yl)methanesulfonamide]
0 to 25 | 50 to 75 | 0 to 25 | – | 25 to 50 | – | – | CC(=O)Nc1ccn(C(=O)N2CCC3(CCCN3Cc3cc4cc(C(=O)O)ccc4[nH]3)CC2)n1 [Example 49, 2-((8-(3-Acetamido-1H-pyrazole-1-carbonyl)-1,8-diazaspiro[4.5]decan-1-yl)methyl)-1H-indole-5-carboxylic acid]
> 75 | > 75 | 25 to 50 | – | > 75 | – | – | CC(=O)Nc1ccn(C(=O)N2CC3CN(Cc4cc(Cl)cc(N5CCOCC5)c4)CC3C2)n1 (stereo not drawn) [Example 167, N-(1-(5-(3-Chloro-5-morpholinobenzyl)octahydropyrrolo[3,4-c]pyrrole-2-carbonyl)-1H-pyrazol-3-yl)acetamide]
50 to 75 | > 75 | – | – | – | – | – | CC(=O)Nc1ccn(C(=O)N2CC3CN(Cc4ccc(N5CCOCC5)c(C(F)(F)F)c4)CC3C2)n1 (stereo not drawn) [Example 171, N-(1-(5-(4-Morpholino-3-(trifluoromethyl)benzyl)octahydropyrrolo[3,4-c]pyrrole-2-carbonyl)-1H-pyrazol-3-yl)acetamide]
0 to 25 | 0 to 25 | – | 0 to 25 | – | – | – | C[C@@H]1C[C@H](N(C)Cc2ccc(Cl)c(N3CC4COCC4C3)c2)CCN1C(=O)n1ccc(NS(C)(=O)=O)n1 (stereo partly drawn) [Example 27, N-(1-((2R,4R)-4-((4-chloro-3-(tetrahydro-1H-furo[3,4-c]pyrrol-5(3H)-yl)benzyl)(methyl)amino)-2-methylpiperidine-1-carbonyl)-1H-pyrazol-3-yl)methanesulfonamide]
> 75 | > 75 | – | – | > 75 | – | – | CS(=O)(=O)Nc1ccn(C(=O)N2CCC(OCc3ccc(N4CCC(F)CC4)c(Cl)c3)CC2)n1 [Example 30, N-(1-(4-((3-chloro-4-(4-fluoropiperidin-1-yl)benzyl)oxy)piperidine-1-carbonyl)-1H-pyrazol-3-yl)methanesulfonamide]
> 75 | > 75 | – | – | – | – | – | CC(=O)Nc1ccn(C(=O)N2CC3CN(Cc4ccc(Oc5ccc(Cl)cc5)cc4)CC3C2)n1 (stereo not drawn) [Example 44, N-(1-(5-(4-(4-Chlorophenoxy)benzyl)octahydropyrrolo[3,4-c]pyrrole-2-carbonyl)-1H-pyrazol-3-yl)acetamide]
> 75 | > 75 | – | – | – | – | – | CC(=O)Nc1ccn(C(=O)N2C[C@H]3C[C@@H](N(C)Cc4ccccc4Cl)C[C@H]3C2)n1 [Example 37, N-(1-((3aR,5r,6aS)-5-((2-Chlorobenzyl)(methyl)amino)octahydrocyclopenta[c]pyrrole-2-carbonyl)-1H-pyrazol-3-yl)acetamide]
> 75 | > 75 | – | – | – | – | – | CC(=O)Nc1ccn(C(=O)N2C[C@H]3C[C@H](N(C)Cc4ccccc4Cl)C[C@H]3C2)n1 [Example 36, N-(1-((3aR,5s,6aS)-5-((2-Chlorobenzyl)(methyl)amino)octahydrocyclopenta[c]pyrrole-2-carbonyl)-1H-pyrazol-3-yl)acetamide]
50 to 75 | > 75 | – | – | – | – | – | CC(=O)Nc1ccn(C(=O)N2CC3CN(Cc4ccc(Cl)cc4)CC3C2)n1 (stereo not drawn) [Example 170, N-(1-(5-(4-Chlorobenzyl)octahydropyrrolo[3,4-c]pyrrole-2-carbonyl)-1H-pyrazol-3-yl)acetamide]
0 to 25 | > 75 | – | – | > 75 | – | – | C[C@H]1CN(C(=O)n2ccc(NS(C)(=O)=O)n2)CCN1Cc1cnc(C(F)(F)F)c(N2CCC(F)CC2)c1 [Example 33, (S)—N-(1-(4-((5-(4-fluoropiperidin-1-yl)-6-(trifluoromethyl)pyridin-3-yl)methyl)-3-methylpiperazine-1-carbonyl)-1H-pyrazol-3-yl)methanesulfonamide]
50 to 75 | > 75 | – | – | – | – | – | CC(=O)Nc1ccn(C(=O)N2CC3CN(Cc4ccc(Cl)cc4Cl)CC3C2)n1 (stereo not drawn) [Example 174, N-(1-(5-(2,4-Dichlorobenzyl)octahydropyrrolo[3,4-c]pyrrole-2-carbonyl)-1H-pyrazol-3-yl)acetamide]
